Assay results taken from US20130115622A1, “PHARMACEUTICAL COMPOSITION FOR PREVENTION AND TREATMENT OF AMYOTROPHIC LATERAL SCLEROSIS” (KYOTO UNIVERSITY, priority 2009, published 2013).
Structures can show the parent of a compound that is named as a salt.

Tested on: SOD1
Test: Analysis of SOD1 in iPS cell-derived astrocytes (Western blotting)
Type: cell-based, human
Settings: astrocytes differentiated from ALS patient iPS cells (SOD1 L106V); 5 nM, 50 nM, 500 nM and 5 μM; 48 hours incubation; Western blotting vs vehicle 0.5% DMSO
Description: The iPS cell-derived astrocytes were seeded to a 6-well plate at a density of 250,000 cells/well. After a vehicle [0.5% dimethylsulfoxide (DMSO)], cycloheximide at a final concentration of 5 μg/ml, and Atorvastatin Calcium Salt (Toronto Research Chemicals Inc.) at various final concentrations (5 nM, 50 nM, 500 nM and 5 μM) were added, the plate was incubated for 48 hours. Subsequently, the cells were recovered, and lysed using a 20 mM Hepes, pH 7.4, containing 1% triton X-100, 10% glycerol, 5 mM EDTA, 120 mM NaCl and protease inhibitor cocktail (Complete; Roche), on ice for 30 minutes. The cell lysate was centrifuged at 15,000 rpm, 4° C. for 30 minutes, and the supernatant was recovered. Western blotting was performed using this cytolysis supernatant. Specifically, 20 μg aliquot of the protein was separated by SDS-PAGE (4-12% polyacrylamide gels), transferred to a PVDF membrane, and incubated with an anti-SOD1 antibody (1:2000 dilution) (Stressgen Company) or an anti-β-actin antibody (1:5000 dilution) (Sigma-Aldrich Company). After the incubation, the amount expressed was detected by ECL (Enhanced ChemiLuminescence) using an HRP-linked anti-rabbit IgG antibody (1:5000; GE healthcare) and an HRP-linked anti-mouse IgG antibody (1:5000; GE healthcare). […] Meanwhile, when the vehicle DMSO alone was added to the human iPS cell 253G4 described by Nakagawa M et al. in Nat. Biotechnol. […]

## CC(C)c1c(C(=O)Nc2ccccc2)c(-c2ccccc2)c(-c2ccc(F)cc2)n1CC[C@H](O)C[C@@H](O)CC(=O)O [Atorvastatin Calcium Salt, (3R,5S)-7-[2-(4-fluorophenyl)-5-(1-methylethyl)-3-phenyl-4-phenylaminocarbonyl-1H-pyrrol-1-yl]-3,5-dihydroxyheptanoic acid]
  expression of SOD1 (amount of SOD1 protein): a reduction in the expression of SOD1 was observed
